What is called pIC50 is −log10 of the IC50, conventionally taken in molar units. High values mean a small IC50, low ones a large IC50.

Results on 22 molecules are retold here after patent US20220313701A1, “MODULATORS OF TREX1” (Constellation Pharmaceuticals, Inc., priority 2019, published 2022).

For one assay, the target named is T1, full length human TREX1 (Homo sapiens, UniProt Q9NSU2).
T1 construct: N-terminally His-Tev tagged full length human TREX1; His-Tev (His tag with TEV site) (N); made in house; host or cells: E. coli
T1 sequence (Q9NSU2 1-314): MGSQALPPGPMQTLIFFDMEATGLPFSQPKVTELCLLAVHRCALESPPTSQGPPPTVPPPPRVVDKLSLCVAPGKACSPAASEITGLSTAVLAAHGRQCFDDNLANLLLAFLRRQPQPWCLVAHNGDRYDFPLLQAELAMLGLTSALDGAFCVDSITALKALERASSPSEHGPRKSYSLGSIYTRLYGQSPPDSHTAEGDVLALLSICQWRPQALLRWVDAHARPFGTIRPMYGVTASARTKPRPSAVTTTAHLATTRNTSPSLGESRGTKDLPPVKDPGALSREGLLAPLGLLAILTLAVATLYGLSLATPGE
Put plainly: TREX1 Biochemical Assay (fluorescence assay, degradation of dsDNA substrate). To be noted: 150 pM TREX1, 60 nM dsDNA substrate, 25 minutes at room temperature. Here is the method:
Degradation of the dsDNA liberates free fluorophore to produce a fluorescent signal. Specifically, 7.5 μL of N-terminally His-Tev tagged full length human TREX1 (expressed in E. coli and purified in house) in reaction buffer (50 mM Tris (pH 7.4), 150 mM NaCl, 2 mM DTT, 0.1 mg/mL BSA, 0.01% (v/v) Tween-20 and either 100 mM MgCl2) was added to a 384-well Black ProxiPlate Plus (Perkin Elmer) which already contained compound (150 nL) at varying concentrations as a 10 point dose-response in DMSO. To this was added 7.5 μL of dsDNA substrate (Strand A: 5′ TEX615/GCT AGG CAG 3′; Strand B: 5′ CTG CCT AGC/IAbRQSp (Integrated DNA Technologies)) in reaction buffer. Final concentrations were 150 pM TREX1, 60 nM dsDNA substrate in reaction buffer with 1.0% DMSO (v/v). After 25 minutes at room temperature, reactions were quenched by the addition of 5 μL of stop buffer (same as reaction buffer plus 200 mM EDTA). Final concentrations in the quenched reaction were 112.5 pM TREX1, 45 nM DNA and 50 mM EDTA in a volume of 20 μL. After a 5-minute incubation at room temperature, plates were read in a laser sourced Envision (Perkin-Elmer), measuring fluorescence at 615 nm following excitation w/570 nm light. IC50 values were calculated by comparing the measured fluorescence at 615 nm ratio relative to control wells pre-quenched w/stop buffer (100% inhibition) and no inhibitor (0% inhibition) controls as using non-linear least square four parameter fits and either Genedata or GraphPad Prism (GraphPad Software, Inc.).

Assay [1] concerns the target T2, human TREX2 (residues M44-A279) (Homo sapiens, UniProt Q9BQ50).
T2 construct: human TREX2 (residues M44-A279, expressed in E. coli); His-Tev (His tag with TEV site) (N); made in house; host or cells: E. coli
T2 sequence (Q9BQ50 44-279 isoform Q9BQ50-1): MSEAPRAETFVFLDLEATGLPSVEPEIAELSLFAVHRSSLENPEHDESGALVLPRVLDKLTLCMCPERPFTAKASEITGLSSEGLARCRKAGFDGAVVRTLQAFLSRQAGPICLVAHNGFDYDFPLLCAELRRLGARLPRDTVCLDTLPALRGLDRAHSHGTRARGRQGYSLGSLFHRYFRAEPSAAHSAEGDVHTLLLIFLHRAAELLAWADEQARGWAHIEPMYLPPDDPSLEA
The experiment in a line: TREX2 Biochemical Assay (fluorescence assay, degradation of dsDNA substrate). To be noted: 2.5 nM TREX2, 60 nM dsDNA substrate, 25 minutes at room temperature. Here is the method: Degradation of the dsDNA liberates free fluorophore to produce a fluorescent signal. Specifically, 7.5 μL of N-terminally His-Tev tagged human TREX2 (residues M44-A279, expressed in E. coli and purified in house) in reaction buffer (50 mM Tris (pH 7.4), 150 mM NaCl, 2 mM DTT, 0.1 mg/mL BSA, 0.01% (v/v) Tween-20 and 100 mM MgCl2) was added to a 384-well Black ProxiPlate Plus (Perkin Elmer) which already contained compound (150 nL) at varying concentrations as a 10 point dose-response in DMSO. To this was added 7.5 μL of dsDNA substrate (Strand A: 5′ TEX615/GCT AGG CAG 3′; Strand B: 5′ CTG CCT AGC/IAbRQSp (IDT)) in reaction buffer. Final concentrations were 2.5 nM TREX2, 60 nM dsDNA substrate in reaction buffer with 1.0% DMSO (v/v). After 25 minutes at room temperature, reactions were quenched by the addition of 5 μL of stop buffer (same as reaction buffer plus 200 mM EDTA). Final concentrations in the quenched reaction mixture were […] TREX2, 45 nM DNA and 50 mM EDTA in a volume of 20 μL. After a 5-minute incubation at room temperature, plates were read in a laser sourced Envision (Perkin-Elmer), measuring fluorescence at 615 nm following excitation w/570 nm light. IC50 values were calculated by comparing the measured fluorescence at 615 nm ratio relative to control wells pre-quenched w/stop buffer (100% inhibition) and no inhibitor (0% inhibition) controls as using non-linear least square four parameter fits and either Genedata or GraphPad Prism (GraphPad Software, Inc.).

Structures are written as SMILES. pIC50: −log10 of the molar value.

As to `COc1cc(N2CCC(O)(c3ccc(F)cc3)CC2)ncn1` [Example 85, 4-(4-fluorophenyl)-1-(6-methoxypyrimidin-4-yl)piperidin-4-ol], the negative logarithm of the IC50 (pIC50) on full length human TREX1 was 5.00 to 6.00; in assay [1] it was < 4.00.

Consider `Cc1noc(C)c1-c1cncc(N2CCC(O)(c3ccc(F)cc3)CC2)n1` [Example 19, 1-(6-(3,5-dimethylisoxazol-4-yl)pyrazin-2-yl)-4-(4-fluorophenyl)piperidin-4-ol], for which the pIC50 against full length human TREX1 is 5.00 to 6.00; in assay [1], < 4.00.

Turning to `O=C(NCc1ccncc1)c1cncc(N2CCC(O)(c3ccc(F)cc3)CC2)n1` [Example 65, 6-(4-(4-fluorophenyl)-4-hydroxypiperidin-1-yl)-N-(pyridin-4-ylmethyl)pyrazine-2-carboxamide], the negative-log IC50 (pIC50) against full length human TREX1 is < 5.00; in assay [1], < 4.00.

Turning to `OC1(c2ccc(F)cc2)CCN(c2cncc(-c3ccccc3C(F)(F)F)n2)CC1` [Example 31, 4-(4-fluorophenyl)-1-(6-(2-(trifluoromethyl)phenyl)pyrazin-2-yl)piperidin-4-ol], the pIC50 on full length human TREX1 was 5.00 to 6.00; in assay [1], < 4.00.

Take `OC1(c2cccnc2)CCN(c2cncc(-n3cccn3)n2)CC1` [Example 75, 1-(6-(1H-pyrazol-1-yl)pyrazin-2-yl)-4-(pyridin-3-yl)piperidin-4-ol]: the negative-log IC50 (pIC50) at full length human TREX1 is < 5.00; in assay [1] it was < 4.00.

As for `Cc1nc(-c2cn(C)nc2C)c(F)c(N2CCC(O)(c3ccc(F)c(F)c3)CC2)n1` [Example 91, 4-(3,4-difluorophenyl)-1-(6-(1,3-dimethyl-1H-pyrazol-4-yl)-5-fluoro-2-methylpyrimidin-4-yl)piperidin-4-ol], the negative logarithm of the IC50 (pIC50) against full length human TREX1 was 6.00 to 7.00; in assay [1] it was < 4.00.

`OC1(c2ccccc2F)CCN(c2cncc(-n3cccn3)n2)CC1` [Example 3, 1-(6-(1H-pyrazol-1-yl)pyrazin-2-yl)-4-(2-fluorophenyl)piperidin-4-ol]: the figures for the pIC50 (at full length human TREX1; in assay [1]) were < 5.00 and < 4.00, respectively.

As to `COc1ccccc1-c1cncc(N2CCC(O)(c3ccc(F)cc3)CC2)n1` [Example 28, 4-(4-fluorophenyl)-1-(6-(2-methoxyphenyl)pyrazin-2-yl)piperidin-4-ol], the pIC50 at full length human TREX1 is < 5.00; in assay [1], < 4.00.

Turning to `Cc1nn(C)cc1-c1ccnc(N2CCC(O)(c3ccc(F)c(F)c3)CC2)c1` [Example 55, 4-(3,4-difluorophenyl)-1-(4-(1,3-dimethyl-1H-pyrazol-4-yl)pyridin-2-yl)piperidin-4-ol], the figures for the negative logarithm of the IC50 (pIC50) (against full length human TREX1; in assay [1]) were < 5.00 and < 4.00, respectively.

In the case of `Cc1nn(C)cc1-c1cc(N2CCC(O)(c3ccc(F)c(F)c3)CC2)ncn1` [Example 58, 4-(3,4-difluorophenyl)-1-(6-(1,3-dimethyl-1H-pyrazol-4-yl)pyrimidin-4-yl)piperidin-4-ol], the negative logarithm of the IC50 (pIC50) against full length human TREX1 is > 7.00; in assay [1], 4.00 to 5.00.

Regarding `Cn1cc(-c2ccnc(N3CCC(O)(c4ccc(F)cc4)CC3)n2)cn1` [Example 37, 4-(4-fluorophenyl)-1-(4-(1-methyl-1H-pyrazol-4-yl)pyrimidin-2-yl)piperidin-4-ol], the pIC50 was 5.00 to 6.00 against full length human TREX1 and < 4.00 in assay [1].

Turning to `Cc1ncc(N2CCC(O)(c3ccc(F)c(F)c3)CC2)nc1-c1cnn(C)c1` [Example 90, 4-(3,4-difluorophenyl)-1-(5-methyl-6-(1-methyl-1H-pyrazol-4-yl)pyrazin-2-yl)piperidin-4-ol], the negative-log IC50 (pIC50) is 6.00 to 7.00 on full length human TREX1 and < 4.00 in assay [1].

Turning to `Cc1nn(C)cc1-c1cc(C(=O)NCc2ccccc2)cc(N2CCC(O)(c3ccc(F)c(F)c3)CC2)n1` [Example 40, N-benzyl-2-(4-(3,4-difluorophenyl)-4-hydroxypiperidin-1-yl)-6-(1,3-dimethyl-1H-pyrazol-4-yl)isonicotinamide], the negative-log IC50 (pIC50) at full length human TREX1 is 6.00 to 7.00; in assay [1], < 4.00.

With `OC1(c2ccc(F)cc2)CCN(c2cncc(Cl)n2)CC1` [Example 84, 1-(6-chloropyrazin-2-yl)-4-(4-fluorophenyl)piperidin-4-ol], the values for the negative-log IC50 (pIC50) (against full length human TREX1; in assay [1]) were 5.00 to 6.00 and < 4.00, respectively.

On to `COc1ccc(-c2cncc(N3CCC(O)(c4ccc(F)cc4)CC3)n2)cc1` [Example 29, 4-(4-fluorophenyl)-1-(6-(4-methoxyphenyl)pyrazin-2-yl)piperidin-4-ol], for which the figures for the pIC50 (against full length human TREX1; in assay [1]) were < 5.00 and < 4.00, respectively.

Consider `Cc1nc(-c2cn(C)nc2-c2ccccc2)cc(N2CCC(O)(c3ccc(F)c(F)c3)CC2)n1` [Example 100, 4-(3,4-difluorophenyl)-1-(2-methyl-6-(1-methyl-3-phenyl-1H-pyrazol-4-yl)pyrimidin-4-yl)piperidin-4-ol], for which the negative-log IC50 (pIC50) against full length human TREX1 is 6.00 to 7.00; in assay [1], < 4.00.

Turning to `Cc1nn(C)cc1-c1cc(C(=O)N2CCCCC2)cc(N2CCC(O)(c3ccc(F)c(F)c3)CC2)n1` [Example 41, (2-(4-(3,4-difluorophenyl)-4-hydroxypiperidin-1-yl)-6-(1,3-dimethyl-1H-pyrazol-4-yl)pyridin-4-yl)(piperidin-1-yl)methanone], the pIC50 was > 7.00 against full length human TREX1 and 4.00 to 5.00 in assay [1].

With `Cc1nn(C)cc1-c1cncc(N2CCC(O)(c3cc(F)c(F)c(F)c3)CC2)n1` [Example 47, 1-(6-(1,3-dimethyl-1H-pyrazol-4-yl)pyrazin-2-yl)-4-(3,4,5-trifluorophenyl)piperidin-4-ol], the pIC50 on full length human TREX1 was > 7.00; in assay [1] it was 4.00 to 5.00.

For the molecule `CCn1cc(-c2cncc(N3CCC(O)(c4ccc(F)c(F)c4)CC3)n2)c(C)n1` [Example 63, 4-(3,4-difluorophenyl)-1-(6-(1-ethyl-3-methyl-1H-pyrazol-4-yl)pyrazin-2-yl)piperidin-4-ol], the pIC50 is > 7.00 on full length human TREX1 and 5.00 to 6.00 in assay [1].

For the molecule `OC1(c2ccc(F)cc2)CCN(c2cncc(-c3cnn(Cc4ccccc4)c3)n2)CC1` [Example 14, 1-(6-(1-benzyl-1H-pyrazol-4-yl)pyrazin-2-yl)-4-(4-fluorophenyl)piperidin-4-ol], the negative logarithm of the IC50 (pIC50) was 5.00 to 6.00 at full length human TREX1 and < 4.00 in assay [1].

In the case of `OC1(c2ccc(F)cc2)CCN(c2cncc(-c3ccc(F)cc3)n2)CC1` [Example 27, 4-(4-fluorophenyl)-1-(6-(4-fluorophenyl)pyrazin-2-yl)piperidin-4-ol], the pIC50 is < 5.00 against full length human TREX1 and < 4.00 in assay [1].

Consider `CS(=O)(=O)c1ccc(-c2cncc(N3CCC(O)(c4ccc(F)cc4)CC3)n2)cc1` [Example 22, 4-(4-fluorophenyl)-1-(6-(4-(methylsulfonyl)phenyl)pyrazin-2-yl)piperidin-4-ol], for which the pIC50 at full length human TREX1 is 5.00 to 6.00; in assay [1] it was < 4.00.
